Results reported in paper PMC7318006, “Anidulafungin and Micafungin Concentrations in Cerebrospinal Fluid and in Cerebral Cortex” (Antimicrobial Agents and Chemotherapy, 2020).
Like-named read-outs stand apart in the source and are kept apart here. Starred links: 1 amine or outer side, 2 acyl side, 3 side chain; linkers in the order of their positions; H or OH if unused. Positions of bridges follow the written chain, without caps; N, C: chain ends. Non-standard residues stand in square brackets, D forms with d. Residues, ends and D or L forms follow the SMILES beside them. *: point of attachment. hTyr(3S-OH,4S-OH,3'-OSO3H) = N[C@H](C(=O)O)[C@H](O)[C@@H](O)c1ccc(O)c(OS(=O)(=O)O)c1; pTerphenylCO(4''-OnC5H11) = CCCCCOc1ccc(-c2ccc(-c3ccc(C(=O)*)cc3)cc2)cc1; Orn(4R-OH,5R-OH) = O=C([C@H](C[C@@H](O)[C@@H](O)N[*:3])N[*:1])[*:2]; hTyr(3S-OH,4S-OH) = N[C@H](C(=O)O)[C@H](O)[C@@H](O)c1ccc(O)cc1; Pro(3S-OH,4S-Me) = C[C@H]1CN[C@H](C(=O)O)[C@H]1O; X1 = CCCCCOc1ccc(-c2cc(-c3ccc(C(=O)*)cc3)no2)cc1; Gln(3R-OH) = NC(=O)C[C@@H](O)[C@H](N)C(=O)O; Hyp = O=C(O)[C@@H]1C[C@@H](O)CN1

Key:
[1] = clinical; conditions: human, in vivo, iv
[2] = Concentration in arterial plasma of critically ill adults drawn simultaneously with CSF, HPLC-UV; type: in vivo, human; conditions: for AUC(0-t) / half-life / Cmax / Tmax: intravenous; for AUC(0-t): read-out: AUC0–24 in plasma; for half-life: read-out: t1/2 (half-life) in plasma (converted); for Cmax: read-out: Cmax (peak concentration) in plasma; for Tmax: read-out: Tmax (time to Cmax) in plasma
Procedure: CSF was taken during diagnostic lumbar puncture (LP) or via external ventricular drain (EVD) from critically ill adults treated with anidulafungin or micafungin. Simultaneously, we took 2-ml arterial blood samples. CSF and plasma were stored at –80°C.
Anidulafungin and micafungin concentrations were quantified by high-performance liquid chromatography and UV detection (HPLC-UV) as described previously ([5]). Noncompartmental pharmacokinetics was calculated with Kinetica 2000 (InnaPhase Corporation, Champs-sur-Marne, France). The area under the concentration-time curve from 0 to 24 h (AUC0–24) was computed with the log-linear method when the concentration in a trapezoid decreased or with the trapezoidal method when the concentration increased.

[3] = Concentration in autopsy samples of cerebral cortex of deceased patients, HPLC-UV; type: in vivo, human
Procedure: The cerebral cortex of deceased patients who had received anidulafungin or micafungin within their last 30 days of life was sampled during autopsy, which is routinely performed for quality assurance in Austrian hospitals. Anidulafungin and micafungin were extracted from 0.2 g of tissue by addition of 250 μl of acetonitrile and 250 μl of methanol (Sigma-Aldrich, Vienna, Austria), homogenization with a Precellys homogenizer (Bertin Instruments, Montigny-le-Bretonneux, France) at 4,500 rpm (twice for 25 s, 2-s break), and centrifugation for 5 min at 8°C and 4,665 × g. For calibration, we used porcine brain samples spiked with anidulafungin or micafungin and homogenized and proceeded in the same manner. Both echinocandins were quantified by HPLC-UV at 306 nm ([5]). The lower limit of quantification was 0.05 μg/g for anidulafungin and 0.10 μg/g for micafungin. The extraction recovery from brain was ∼40% and ∼60% for anidulafungin and micafungin, respectively.

[4] = cited from earlier work
Procedure: In brain specimens, we cannot rule out minor agonal or postmortem changes of anidulafungin and micafungin concentrations, although anidulafungin and micafungin were stable in the brains of deceased patients for at least 96 h. Brain specimens consist of various compartments, e.g., different cells, extracellular matrix, and blood vessels. Anidulafungin and micafungin were not quantified on a cellular level or in different brain areas. Echinocandin extraction from human brain might yield slightly lower recovery than extraction from external standards. In rats, [^3H]caspofungin brain concentration ...

[5] = cumulative dose 200 mg; for Cmax (peak concentration) in CSF: steady state not reached
[6] = Stability in brain tissue at 4°C; type: in vitro ADME, human; conditions: brain tissue at 4°C (storage temperature of the corpses)
Procedure: In brain specimens, we cannot rule out minor agonal or postmortem changes of anidulafungin and micafungin concentrations, although anidulafungin and micafungin were stable in the brains of deceased patients for at least 96 h. Brain specimens consist of various compartments, e.g., different cells, extracellular matrix, and blood vessels. Anidulafungin and micafungin were not quantified on a cellular level or in different brain areas. Echinocandin extraction from human brain might yield slightly lower recovery than extraction from external standards. In rats, [^3H]caspofungin brain concentrations were ≤0.16 μg eq/g ([17]). In rabbits, micafungin brain concentrations were <0.19 μg/g, and those of anidulafungin were <4.0 μg/g ([18], [19]). In a biopsy sample of a brain abscess, a micafungin concentration of 0.26 μg/g was measured ([20]).

[7] = tested on: Candida strains; conditions: pharmacodynamic target, not achieved in CSF of patients 2 and 5; cited from earlier work
Procedure: In some of the CSF and brain specimens, measured anidulafungin and micafungin concentrations were below the MICs reported for relevant Candida species (i.e., 0.008 to 4.0 μg/ml) ([6]). […] However, the relevance of in vitro MIC values for antifungal activity of echinocandins in CSF and in CNS remains to be clarified. In CSF, protein binding of anidulafungin and micafungin is unk ...

[8] = cited from earlier work; remark: listed apart in the source
[9] = human, plasma, patient 2, cumulative dose 200 mg, treatment day 1, noncompartmental
[10] = patient 2, external ventricular drainage, treatment day 1, noncompartmental
[11] = human, plasma, patient 5, cumulative dose 200 mg, treatment day 2, noncompartmental
[12] = patient 5, external ventricular drainage, treatment day 2, noncompartmental

Compound: CCCCCOc1ccc(-c2ccc(-c3ccc(C(=O)N[C@H]4C[C@@H](O)[C@@H](O)NC(=O)[C@@H]5[C@@H](O)[C@@H](C)CN5C(=O)[C@H]([C@@H](C)O)NC(=O)[C@H]([C@H](O)[C@@H](O)c5ccc(O)cc5)NC(=O)[C@@H]5C[C@@H](O)CN5C(=O)[C@H]([C@@H](C)O)NC4=O)cc3)cc2)cc1 [anidulafungin] ({pTerphenylCO(4''-OnC5H11)}-[Orn(4R-OH,5R-OH)]T[Hyp][hTyr(3S-OH,4S-OH)]T[Pro(3S-OH,4S-Me)]; lactam 1-C)
- Kp ([1]; 200 mg): 0.07
- Kp at 3 h ([1]; 300 mg): 0.01
- Kp at 0.5 h ([1]; 2500 mg): < 0.002
- AUC(0-t) [2, 9]: 29400 ng·h/mL
- half-life [2, 9]: 14.7 h
- Cmax ([2]; human, plasma, patient 2, cumulative dose 200 mg, treatment day 1, sampling before and 1, 4, 8, 12, 18, 24 h after start of infusion, steady state not reached): 2720 ng/mL
- Tmax ([2]; human, plasma, patient 2, cumulative dose 200 mg, treatment day 1): 1 h
- level at 0.5 h ([2]; human, plasma, iv, 2500 mg, patient 3, arterial blood simultaneous with lumbar puncture, cumulative dose 2,500 mg, treatment day 24, 0.5 h from start of infusion, steady state, read-out: Plasma concn): 5070 ng/mL
- level at 3 h ([2]; human, plasma, iv, patient 1, arterial blood simultaneous with lumbar puncture, cumulative dose 300 mg, treatment day 3, 3.0 h from start of infusion, steady state not reached, read-out: Plasma concn): 3830 ng/mL
- Cmin (trough concentration) in plasma ([2]; patient 2, cumulative dose 200 mg, treatment day 1, steady state not reached): 770 ng/mL
- tissue level at time at 29 h ([3]; human, cerebral cortex, 1200 mg, patient 10, cumulative dose 1,200 mg, treatment 11 days, 29 h between last administration and death, 21 h between death and sampling, LLOQ 0.05 μg/g, read-out: Concn in cerebral cortex (autopsy)): 1580 ng/g
- tissue level at time at 12 h ([3]; human, cerebral cortex, 1500 mg, patient 9, cumulative dose 1,500 mg, treatment 14 days, 12 h between last administration and death, 15 h between death and sampling, LLOQ 0.05 μg/g, read-out: Concn in cerebral cortex (autopsy)): 2340 ng/g
- tissue level at time at 313 h ([3]; human, cerebral cortex, 1800 mg, patient 8, cumulative dose 1,800 mg, treatment 17 days, 313 h between last administration and death, 25 h between death and sampling, LLOQ 0.05 μg/g, read-out: Concn in cerebral cortex (autopsy)): 280 ng/g
- tissue level at time at 32 h ([3]; human, cerebral cortex, patient 7, cumulative dose 700 mg, treatment 6 days, 32 h between last administration and death, 14 h between death and sampling, LLOQ 0.05 μg/g, read-out: Concn in cerebral cortex (autopsy)): 210 ng/g
- Brain concentrations ([4]; rabbits): < 4.0 µg/g
- Tmax (time to Cmax) in CSF ([5]; patient 2, external ventricular drainage, treatment day 1): 1 h
- AUC0–24 in CSF [5, 10]: 2090 ng·h/mL
- t1/2 (half-life) in CSF [5, 10]: 7.90 h
- Cmax (peak concentration) in CSF ([5]; patient 2, external ventricular drainage, treatment day 1, sampling before and 1, 4, 8, 12, 18, 24 h after start of infusion): 660 ng/mL
- Cmin (trough concentration) in CSF ([5]; patient 2, external ventricular drainage, treatment day 1, steady state not reached): 30 ng/mL
- Time stable in brain tissue [6]: at least 96 h
- Target AUC0–24/MIC ratio suggested [7]: 2,782

Compound: CCCCCOc1ccc(-c2cc(-c3ccc(C(=O)N[C@H]4C[C@@H](O)[C@@H](O)NC(=O)[C@@H]5[C@@H](O)[C@@H](C)CN5C(=O)[C@H]([C@H](O)CC(N)=O)NC(=O)[C@H]([C@H](O)[C@@H](O)c5ccc(O)c(OS(=O)(=O)O)c5)NC(=O)[C@@H]5C[C@@H](O)CN5C(=O)[C@H]([C@@H](C)O)NC4=O)cc3)no2)cc1 [micafungin] (X1-[Orn(4R-OH,5R-OH)]T[Hyp][hTyr(3S-OH,4S-OH,3'-OSO3H)][Gln(3R-OH)][Pro(3S-OH,4S-Me)]; lactam 1-C)
- Kp ([1]; 200 mg): 0.02
- Kp at 16 h ([1]; 200 mg): 0.08
- level at 16 h ([1]; 200 mg): 90 ng/mL
- Kp at 2.5 h ([1]; 1300 mg): 0.03
- AUC(0-t) [2, 11]: 113000 ng·h/mL
- half-life [2, 11]: 12.9 h
- Cmax ([2]; human, plasma, patient 5, cumulative dose 200 mg, treatment day 2, sampling before and 1, 4, 8, 12, 18, 24 h after start of infusion, steady state not reached): 8700 ng/mL
- Tmax ([2]; human, plasma, patient 5, cumulative dose 200 mg, treatment day 2): 1 h
- level at 2.5 h ([2]; human, plasma, iv, 1300 mg, patient 6, arterial blood simultaneous with lumbar puncture, cumulative dose 1,300 mg, treatment day 13, 2.5 h from start of infusion, steady state, read-out: Plasma concn): 3510 ng/mL
- level at 16 h ([2]; human, plasma, iv, patient 4, arterial blood simultaneous with lumbar puncture, cumulative dose 200 mg, treatment day 2, 16.0 h from start of infusion, steady state not reached, read-out: Plasma concn): 1210 ng/mL
- Cmin (trough concentration) in plasma ([2]; patient 5, cumulative dose 200 mg, treatment day 2, steady state not reached): 2160 ng/mL
- Time after treatment at which the drug was still measurable in cerebral cortex ([3]; autopsy samples of deceased patients): 10 days
- tissue level at time at 712 h ([3]; human, cerebral cortex, 1100 mg, patient 11, cumulative dose 1,100 mg, treatment 19 days, 712 h between last administration and death, 58 h between death and sampling, LLOQ 0.10 μg/g, read-out: Concn in cerebral cortex (autopsy)): < 100 ng/g
- tissue level at time at 235 h ([3]; human, cerebral cortex, 4000 mg, patient 16, cumulative dose 4,000 mg, treatment 39 days, 235 h between last administration and death, 29 h between death and sampling, LLOQ 0.10 μg/g, read-out: Concn in cerebral cortex (autopsy)): 190 ng/g
- tissue level at time at 111 h ([3]; human, cerebral cortex, intravenous, 1800 mg, patient 13, cumulative dose 1,800 mg, treatment 18 days, 111 h between last administration and death, 38 h between death and sampling, LLOQ 0.10 μg/g, read-out: Concn in cerebral cortex (autopsy)): 180 ng/g
- tissue level at time at 230 h ([3]; human, cerebral cortex, intravenous, 5300 mg, patient 12, cumulative dose 5,300 mg, treatment 28 days, 230 h between last administration and death, 85 h between death and sampling, LLOQ 0.10 μg/g, read-out: Concn in cerebral cortex (autopsy)): 1520 ng/g
- tissue level at time at 99 h ([3]; human, cerebral cortex, patient 14, cumulative dose 500 mg, treatment 4 days, 25 h between last administration and death, 74 h between death and sampling, LLOQ 0.10 μg/g, read-out: Concn in cerebral cortex (autopsy)): 2880 ng/g
- tissue level at time at 324 h ([3]; human, cerebral cortex, patient 15, cumulative dose 300 mg, treatment 3 days, 324 h between last administration and death, 80 h between death and sampling, LLOQ 0.10 μg/g, read-out: Concn in cerebral cortex (autopsy)): < 100 ng/g
- Concentration in biopsy sample of a brain abscess [4]: 0.26 µg/g
- Brain concentrations ([4]; rabbits): < 0.19 µg/g
- Tmax (time to Cmax) in CSF ([5]; patient 5, external ventricular drainage, treatment day 2): 4 h
- Cmin (trough concentration) in CSF ([5]; patient 5, external ventricular drainage, treatment day 2, LLOQ 0.01 μg/ml): <10 ng/mL
- AUC0–24 in CSF [5, 12]: 2010 ng·h/mL
- t1/2 (half-life) in CSF [5, 12]: 13.80 h
- Cmax (peak concentration) in CSF ([5]; patient 5, external ventricular drainage, treatment day 2, sampling before and 1, 4, 8, 12, 18, 24 h after start of infusion): 160 ng/mL
- CSF concentration ([8]; cerebral aspergillosis, 2-fold maximum dose, 300 mg/day): < 0.02 µg/mL
- Time stable in brain tissue [6]: at least 96 h
- Target AUC0–24/MIC ratio suggested [7]: 5,299

Compound: Caspofungin
- Detection in CSF ([8]; human, in vivo): undetectable
- Detection in CSF ([8]; in 9 of 11 CSF samples from children with hematological malignancies): undetectable

Compound: [^3H]caspofungin
- Brain concentrations ([4]; rats): ≤ 0.16 μg eq/g
